Measurements taken from paper PMC6979384, “Characterization of the plant homeodomain (PHD) reader family for their histone tail interactions” (Epigenetics & Chromatin, 2020).

Legend:
Assay in all cases: Histone peptide microarray
Format in all cases: binding, human
Conditions in all cases: sheet "Array Heatmap"
[1] = system: AIRE (PP)
In short: (§1)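 Steps: express and purify GST-tagged PHD reader; incubate 0.5 μM protein on a peptide microarray (293 histone peptides, single or combined PTMs) following an optimized protocol; average signal across 4 replicates.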

[2] = system: BAZ2B
In short: as §1

[3] = system: BPTF (PB)
In short: as §1

[4] = system: CHD4 (PPCC)
In short: as §1

[5] = system: CHD5 (PCC)
In short: as §1

[6] = system: CHD5 (PPCC)
In short: as §1

[7] = system: DIDO1
In short: as §1

[8] = system: DPF2 (PPC2W2)
In short: as §1

[9] = system: ING1
In short: as §1

[10] = system: ING2
In short: as §1

[11] = system: ING3
In short: as §1

[12] = system: ING4
In short: as §1

[13] = system: ING5
In short: as §1

[14] = system: KDM4C (TTP)
In short: as §1

[15] = system: KDM5A (1)
In short: as §1

[16] = system: KDM5A (3)
In short: as §1

[17] = system: KDM5B (1)
In short: as §1

[18] = system: KDM5B (3)
In short: as §1

[19] = system: KDM7A
In short: as §1

[20] = system: MLL5
In short: as §1

[21] = system: MORC3 (CW)
In short: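 Each reader, produced as a GST fusion and purified, was tested at 0.5 μM on synthetic histone peptides (293 in total) carrying single or combinatorial marks. Intensities averaged over four replicates.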

[22] = system: PHF13
In short: as §1

[23] = system: PHF21A
In short: as §1

[24] = system: PHF23
In short: as §1

[25] = system: PHF2
In short: as §1

[26] = system: PHF8
In short: as §1

[27] = system: PHRF1 (RP)
In short: as §1

[28] = system: RAG2
In short: as §1

[29] = system: SP140L
In short: as §1

[30] = system: TAF3
In short: as §1

[31] = system: TRIM66 (PB)
In short: as §1

[32] = GST-tagged reader, histone peptide array, total n = 4
[33] = GST-tagged AIRE (PP), arrays performed twice, total replicate number n = 4
[34] = GST-tagged BAZ2B, arrays performed twice, total replicate number n = 4
[35] = GST-tagged BPTF (PB), arrays performed twice, total replicate number n = 4
[36] = GST-tagged CHD4 (PPCC), arrays performed twice, total replicate number n = 4
[37] = GST-tagged CHD5 (PCC), arrays performed twice, total replicate number n = 4
[38] = GST-tagged CHD5 (PPCC), arrays performed twice, total replicate number n = 4
[39] = GST-tagged DIDO1, arrays performed twice, total replicate number n = 4
[40] = GST-tagged DPF2 (PPC2W2), arrays performed twice, total replicate number n = 4
[41] = GST-tagged ING1, arrays performed twice, total replicate number n = 4
[42] = GST-tagged ING2, arrays performed twice, total replicate number n = 4
[43] = GST-tagged ING3, arrays performed twice, total replicate number n = 4
[44] = GST-tagged ING4, arrays performed twice, total replicate number n = 4
[45] = GST-tagged ING5, arrays performed twice, total replicate number n = 4
[46] = GST-tagged KDM4C (TTP), arrays performed twice, total replicate number n = 4
[47] = GST-tagged KDM5A (1), arrays performed twice, total replicate number n = 4
[48] = GST-tagged KDM5A (3), arrays performed twice, total replicate number n = 4
[49] = GST-tagged KDM5B (1), arrays performed twice, total replicate number n = 4
[50] = GST-tagged KDM5B (3), arrays performed twice, total replicate number n = 4
[51] = GST-tagged KDM7A, arrays performed twice, total replicate number n = 4
[52] = GST-tagged MLL5, arrays performed twice, total replicate number n = 4
[53] = GST-tagged MORC3 (CW), arrays performed twice, total replicate number n = 4
[54] = GST-tagged PHF13, arrays performed twice, total replicate number n = 4
[55] = GST-tagged PHF21A, arrays performed twice, total replicate number n = 4
[56] = GST-tagged PHF23, arrays performed twice, total replicate number n = 4
[57] = GST-tagged PHF2, arrays performed twice, total replicate number n = 4
[58] = GST-tagged PHF8, arrays performed twice, total replicate number n = 4
[59] = GST-tagged PHRF1 (RP), arrays performed twice, total replicate number n = 4
[60] = GST-tagged RAG2, arrays performed twice, total replicate number n = 4
[61] = GST-tagged SP140L, arrays performed twice, total replicate number n = 4
[62] = GST-tagged TAF3, arrays performed twice, total replicate number n = 4
[63] = GST-tagged TRIM66 (PB), arrays performed twice, total replicate number n = 4

H3R8me2a + K9me3: H3 1-20
Array Heatmap signal, AIRE (PP) [1, 32]: 0.4401
Array Heatmap signal, BAZ2B [2, 32]: 0.4376
Array Heatmap signal, BPTF (PB) [3, 32]: 0.3424
Array Heatmap signal, CHD4 (PPCC) [4, 32]: 0.5686
Array Heatmap signal, CHD5 (PCC) [5, 32]: 0.7117
Array Heatmap signal, CHD5 (PPCC) [6, 32]: 0.5418
Array Heatmap signal, DIDO1 [7, 32]: 0.7155
Array Heatmap signal, DPF2 (PPC2W2) [8, 32]: 0.714
Array Heatmap signal, ING1 [9, 32]: 0.57
Array Heatmap signal, ING2 [10, 32]: 0.595
Array Heatmap signal, ING3 [11, 32]: 0.4657
Array Heatmap signal, ING4 [12, 32]: 0.4504
Array Heatmap signal, ING5 [13, 32]: 0.3474
Array Heatmap signal, KDM4C (TTP) [14, 32]: 0.4618
Array Heatmap signal, KDM5A (1) [15, 32]: 0.4583
Array Heatmap signal, KDM5A (3) [16, 32]: 0.5315
Array Heatmap signal, KDM5B (1) [17, 32]: 0.64
Array Heatmap signal, KDM5B (3) [18, 32]: 0.5093
Array Heatmap signal, KDM7A [19, 32]: 0.3302
Array Heatmap signal, MLL5 [20, 32]: 0.5407
Array Heatmap signal, MORC3 (CW) [21, 32]: 0.4005
Array Heatmap signal, PHF13 [22, 32]: 0.5734
Array Heatmap signal, PHF21A [23, 32]: 0.4463
Array Heatmap signal, PHF23 [24, 32]: 0.5164
Array Heatmap signal, PHF2 [25, 32]: 0.5753
Array Heatmap signal, PHF8 [26, 32]: 0.3554
Array Heatmap signal, PHRF1 (RP) [27, 32]: 0.6376
Array Heatmap signal, RAG2 [28, 32]: 0.2449
Array Heatmap signal, SP140L [29, 32]: 0.3611
Array Heatmap signal, TAF3 [30, 32]: 0.2595
Array Heatmap signal, TRIM66 (PB) [31, 32]: 0.5712

H3R8me2a: H3 1-20 [Peptide H3R8me2a]
Array Heatmap signal, AIRE (PP) [1, 32]: 0.5572
Array Heatmap signal, BAZ2B [2, 32]: 0.437
Array Heatmap signal, BPTF (PB) [3, 32]: 0.3288
Array Heatmap signal, CHD4 (PPCC) [4, 32]: 0.5373
Array Heatmap signal, CHD5 (PCC) [5, 32]: 0.7162
Array Heatmap signal, CHD5 (PPCC) [6, 32]: 0.5334
Array Heatmap signal, DIDO1 [7, 32]: 0.6465
Array Heatmap signal, DPF2 (PPC2W2) [8, 32]: 0.6583
Array Heatmap signal, ING1 [9, 32]: 0.4976
Array Heatmap signal, ING2 [10, 32]: 0.6044
Array Heatmap signal, ING3 [11, 32]: 0.4474
Array Heatmap signal, ING4 [12, 32]: 0.4314
Array Heatmap signal, ING5 [13, 32]: 0.3481
Array Heatmap signal, KDM4C (TTP) [14, 32]: 0.4962
Array Heatmap signal, KDM5A (1) [15, 32]: 0.4494
Array Heatmap signal, KDM5A (3) [16, 32]: 0.6079
Array Heatmap signal, KDM5B (1) [17, 32]: 0.6786
Array Heatmap signal, KDM5B (3) [18, 32]: 0.4831
Array Heatmap signal, KDM7A [19, 32]: 0.3419
Array Heatmap signal, MLL5 [20, 32]: 0.5074
Array Heatmap signal, MORC3 (CW) [21, 32]: 0.4558
Array Heatmap signal, PHF13 [22, 32]: 0.5768
Array Heatmap signal, PHF21A [23, 32]: 0.4488
Array Heatmap signal, PHF23 [24, 32]: 0.5221
Array Heatmap signal, PHF2 [25, 32]: 0.4368
Array Heatmap signal, PHF8 [26, 32]: 0.3345
Array Heatmap signal, PHRF1 (RP) [27, 32]: 0.6824
Array Heatmap signal, RAG2 [28, 32]: 0.2386
Array Heatmap signal, SP140L [29, 32]: 0.3504
Array Heatmap signal, TAF3 [30, 32]: 0.2542
Array Heatmap signal, TRIM66 (PB) [31, 32]: 0.5681

H3R8me2s + K9me2: H3 1-20
Array Heatmap signal, AIRE (PP) [1, 33]: 0.5603
Array Heatmap signal, BAZ2B [2, 34]: 0.5059
Array Heatmap signal, BPTF (PB) [3, 35]: 0.3651
Array Heatmap signal, CHD4 (PPCC) [4, 36]: 0.5754
Array Heatmap signal, CHD5 (PCC) [5, 37]: 0.7949
Array Heatmap signal, CHD5 (PPCC) [6, 38]: 0.5952
Array Heatmap signal, DIDO1 [7, 39]: 0.6168
Array Heatmap signal, DPF2 (PPC2W2) [8, 40]: 0.6724
Array Heatmap signal, ING1 [9, 41]: 0.5182
Array Heatmap signal, ING2 [10, 42]: 0.6129
Array Heatmap signal, ING3 [11, 43]: 0.4823
Array Heatmap signal, ING4 [12, 44]: 0.4841
Array Heatmap signal, ING5 [13, 45]: 0.3835
Array Heatmap signal, KDM4C (TTP) [14, 46]: 0.5379
Array Heatmap signal, KDM5A (1) [15, 47]: 0.5094
Array Heatmap signal, KDM5A (3) [16, 48]: 0.4844
Array Heatmap signal, KDM5B (1) [17, 49]: 0.6818
Array Heatmap signal, KDM5B (3) [18, 50]: 0.5187
Array Heatmap signal, KDM7A [19, 51]: 0.4179
Array Heatmap signal, MLL5 [20, 52]: 0.5188
Array Heatmap signal, MORC3 (CW) [21, 53]: 0.398
Array Heatmap signal, PHF13 [22, 54]: 0.6345
Array Heatmap signal, PHF21A [23, 55]: 0.4814
Array Heatmap signal, PHF23 [24, 56]: 0.5163
Array Heatmap signal, PHF2 [25, 57]: 0.4235
Array Heatmap signal, PHF8 [26, 58]: 0.3655
Array Heatmap signal, PHRF1 (RP) [27, 59]: 0.5504
Array Heatmap signal, RAG2 [28, 60]: 0.2593
Array Heatmap signal, SP140L [29, 61]: 0.3733
Array Heatmap signal, TAF3 [30, 62]: 0.2872
Array Heatmap signal, TRIM66 (PB) [31, 63]: 0.5924

H3R8me2s + K9me3: H3 1-20
Array Heatmap signal, AIRE (PP) [1, 33]: 0.6619
Array Heatmap signal, BAZ2B [2, 34]: 0.5401
Array Heatmap signal, BPTF (PB) [3, 35]: 0.4039
Array Heatmap signal, CHD4 (PPCC) [4, 36]: 0.6275
Array Heatmap signal, CHD5 (PCC) [5, 37]: 0.8709
Array Heatmap signal, CHD5 (PPCC) [6, 38]: 0.6469
Array Heatmap signal, DIDO1 [7, 39]: 0.7617
Array Heatmap signal, DPF2 (PPC2W2) [8, 40]: 0.784
Array Heatmap signal, ING1 [9, 41]: 0.6071
Array Heatmap signal, ING2 [10, 42]: 0.6159
Array Heatmap signal, ING3 [11, 43]: 0.5417
Array Heatmap signal, ING4 [12, 44]: 0.5372
Array Heatmap signal, ING5 [13, 45]: 0.4272
Array Heatmap signal, KDM4C (TTP) [14, 46]: 0.5668
Array Heatmap signal, KDM5A (1) [15, 47]: 0.5383
Array Heatmap signal, KDM5A (3) [16, 48]: 0.5266
Array Heatmap signal, KDM5B (1) [17, 49]: 0.6697
Array Heatmap signal, KDM5B (3) [18, 50]: 0.5509
Array Heatmap signal, KDM7A [19, 51]: 0.3933
Array Heatmap signal, MLL5 [20, 52]: 0.5932
Array Heatmap signal, MORC3 (CW) [21, 53]: 0.4796
Array Heatmap signal, PHF13 [22, 54]: 0.7048
Array Heatmap signal, PHF21A [23, 55]: 0.5424
Array Heatmap signal, PHF23 [24, 56]: 0.594
Array Heatmap signal, PHF2 [25, 57]: 0.5404
Array Heatmap signal, PHF8 [26, 58]: 0.4276
Array Heatmap signal, PHRF1 (RP) [27, 59]: 0.5937
Array Heatmap signal, RAG2 [28, 60]: 0.2769
Array Heatmap signal, SP140L [29, 61]: 0.3989
Array Heatmap signal, TAF3 [30, 62]: 0.3134
Array Heatmap signal, TRIM66 (PB) [31, 63]: 0.7482
